This note sets out measurements from patent publication US8937065B2, “Compositions and methods for modulating a kinase” (Clevexel Pharma, priority 2011, dated 2015).

Experiment [1] concerns NF-kB pathway, Ramos cells. In words: NFkB/Ramos reporter assay. As to conditions: Homo sapiens, read-out: IC50 Cell-based selectivity: NF-kB pathway Ramos cells. The protocol: Cells were plated on the day prior to the assay. Media required included:
• 1. Cells were harvest from culture in Growth Medium and resuspend in Assay Medium at a density of 1.6×10^6 cells/ml. • 2. 32 μl per well of Assay medium were added to the cell-free control wells. 32 μl per well of a cell suspension were added to Unstimulated and Stimulated wells • 3. After plating, the plates were incubated in a 37° C./5% CO2 incubator for 16-20 hours. Preparation of DMSO Solution:
A solution was prepared of 5% DMSO solution (10×) in Assay Media.
A solution was prepared of 10×TNFα solution in Assay Medium. It is recommended to run a dose response curve to determine the EC80 for the Stimulation Solution.
• 1. 4 μl of 10×DMSO solution was added to each well. • 2. 4 μl of Assay Medium was added to the Unstimulated wells and to the Cell-Free wells. • 3. 4 μl of the 10×TNFα was added to the Stimulated wells. • 4. The assay plate was incubated in a humidified 37° C./5% CO2 incubator for 5 hours. Substrate Loading and Incubation
This protocol is designed for loading cells with LiveBLAzer™-FRET B/G Substrate (CCF4-AM) or CCF2-AM. If alternative substrates are used it is recommended to follow the loading protocol provided with the substrate. […]
Added 934 μl Solution C to the combined solutions from above step and vortexed. • 3. […] The cells were counted and then spun cells down and resuspended in 4° C. […]

The test system of a further experiment is Daudi cells. The experiment in a line: Proliferation of Daudi cells (Cell Titer-Glo, 96 h). As to conditions: Homo sapiens, B cells, outcome-based, read-out: IC50 Proliferation Daudi cells (Burkitt's Lymphoma). The protocol: Growth inhibitory activity against the human tumor cell lines, RS4; 11 and Daudi was determined using Promega's Cell Titer-Glo® assay. The human tumor cells were placed in a 96-well microculture plate (Costar white, flat bottom #3917) in a total volume of 90 μL/well. After 24 hours of incubation in a humidified incubator at 37° C. with 5% CO2 and 95% air, […] serially diluted test agents in growth medium were added to each well. After 96 total hours of culture in a CO2 incubator, the plated cells and Cell Titer-Glo® (Promega # G7571) reagents were brought to room temperature to equilibrate for 30 minutes. 100 μL of Cell Titer-Glo® reagent was added to each well. The plate was shaken for 2 minutes and then left to equilibrate for 10 minutes before reading luminescence on the Tecan GENios microplate reader.
Percent inhibition of cell growth was calculated relative to untreated control wells. All tests were performed in duplicate at each concentration level. The IC50 value for the test agents was estimated using Prism 3.03 by curve-fitting the data using the following four parameter-logistic equation: […]

For `O=C(CN1CCOCC1)Nc1cccc(-c2nc(-c3c[nH]c(C(=O)N4CCCC4)c3)cs2)c1` [7A, 2-morpholino-N-(3-(4-(5-(pyrrolidine-1-carbonyl)-1H-pyrrol-3-yl)thiazol-2-yl)phenyl)acetamide], the results for the IC50 (in experiment [1]; with Daudi cells) were more than 100000 nM and 159 nM, respectively.
